In US6043274A, “Method of treating diabetic cardiomyopathy” (priority 1999, dated 2000):

Tests used:
dogs = conditions: intravenously; cited from earlier work
mice = conditions: intravenously; cited from earlier work
[1] = test system: aldose reductase (human recombinant, expressed in SF 9 cells); test: Aldose reductase assay, NADPH dependent reduction of glyceraldehyde; type: biochemical; conditions: glyceraldehyde as substrate, 37° C., plot only, no value given
Experimental: Aldose reductase assays were as described in Nishimura C., Yamaoka T., Mizutani M., Yamashita K., Akera T., Tanimoto T., Purification And Characterization Of The Recombinant Human Aldose Reductase Expressed In Baculovirus System, Biochem. Biophys. Acta, Jun. 24, 1991; 1078(2):171-8.
Briefly, Dimesna (0-20 μM) was incubated at 37° C. with aldose reductase (0.0016 units, human recombinant, expressed in SF 9 cells) and NADPH (0.15 mM) in sodium phosphate buffer (100 mM, pH 6.2). To initiate assays, glucose (10-150 mM) was added to reactions and the decrease in absorbance at 340 nm (oxidation of NADPH) was monitored. Assays were run in duplicate or triplicate. Slopes were calculated using Varian-Cary software package 2.0 and averaged. In all cases errors were 4% or less. Lineweaver Burk analysis (Enzyme Kinetics, version 1.61) was used to calculate inhibition constants.
Aldose reductase assays were as described above. Dimesna (0-30 mM) was evaluated for its effect on the NADPH dependent reduction of glyceraldehyde (0.050-6 mM) to aldose at 37° C. Assays were run in duplicate or triplicate. Slopes were calculated using Varian-Cary software package 2.0 and averaged. In all cases errors were 4% or less. Lineweaver Burk analysis (Enzyme Kinetics, version 1.61) was used to calculate inhibition constants.

diabetic retinopathy = conditions: humans, mainly in the 1980s; cited from earlier work

Structure (SMILES)	dose administered with no adverse effects (dogs)	dose administered with no adverse effects (mice)	Inhibition of Aldose Reductase (Lineweaver Burk plot) [1]	efficacy in slowing the progress of diabetic retinopathy (diabetic retinopathy)	tolerability in patients (diabetic retinopathy)
O=S(=O)([O-])CCSSCCS(=O)(=O)[O-].[Na+].[Na+] [Dimesna, disodium 2,2'-dithiobis ethane sulfonate]	> 3750 mg/kg	> 3750 mg/kg	Inhibition		
O=C1NC(=O)[C@@]2(CCOc3ccc(F)cc32)N1 [sorbinil]				some efficacy	not well tolerated
